Experiments:
[1] = test system: rats with a 6-hydroxydopamine-induced unilateral lesion of the nigrostriatal dopamine pathway; experiment: Augmentation of the contralateral rotation in rats with a 6-hydroxydopamine-induced unilateral lesion of the nigrostriatal dopamine pathway; format: in vivo, male Sprague-Dawley rats; details: 150 minutes
Excerpt: When a unilateral lesion of the nigrostriatal pathway is induced by 6-hydroxydopamine in rodents, the sensitivity of dopamine receptors in the denervated striatum is enhanced. Administration of a dopamine […] to the rodents in such a condition induces a rotational behavior to the side contralateral to the lesioned side [Acta Physiol. Scand., 367, 69 (1971)]. This model has been used for a long time as a model for the study of Parkinson's disease and in the screening of drugs for this disease [Neurol. Neurobiol.; 33, 1 (1987)].
Male Sprague-Dawley rats (weighing 200 to 240 g, Japan SLC) were pretreated with desipramine hydrochloride (25 mg/kg, i.p., Sigma Co.) 30 minutes before surgery to protect noradrenergic neurons. Then, the animals were: anesthetized with sodium pentobarbital (30 mg/kg, i.p., Dainippon Pharm. Co., Ltd.) and the nigrostriatal pathway was lesioned by injection of 6-hydroxydopamine hydrobromide (8 μg, Sigma Co.) into the left medial forebrain bundle. 6-Hydroxydopamine hydrobromide was dissolved in physiological saline containing 0.05% L-ascorbic acid (Wako Pure Chem. Industries, Ltd.) to make 2 μl. of solution and injected over 3 minutes.
More than 10 days after surgery, each rat was placed in a plastic bowl (30 cm in diameter). […] The number of rotations was counted with an automated rotometer, in which each 180° turn was counted as a rotation. […]

[2] = test system: Haloperidol-induced catalepsy in mice; experiment: Effect on haloperidol-induced catalepsy; format: in vivo, male ddY mice; details: 10 mg/kg, oral; for Number of the Animals Showing Remission: five mice, catalepsy score not more than 4; for Remission Rate: rate of decrease in total score based on control group; for Total Score (catalepsy): total of five mice, 25 points at the full (control 25), not more than 20 effective
Experimental: The experiment was performed by using several groups of 5-weeks-old male ddY mice (weighing 22.to 24 g, Japan SLC), each group consisting of 5 mice. Haloperidol (Janssen Pharmaceutical) suspended in 0.3% CMC was intraperitoneally administered to each mouse at a dose of 1.0 mg/kg. Test compounds were suspended in 0.3% CMC or in injectable distilled water (Otsuka Pharmaceutical Co., Ltd.) containing Tween 80. L-DOPA (Kyowa Hakko Kogyo Co., Ltd.) and benserazide hydrochloride (Kyowa Hakko Kogyo Co., Ltd.) were suspended in 0.3% CMC. One hour after the haloperidol administration, the test compound suspensions and the control suspension [injectable distilled water (Otsuka Pharmaceutical Co., Ltd.) containing Tween 80] containing no test compound were orally administered to separate groups of the mice (0.1 ml per 10 g of body weight). One hour after the administration of the test compound, the forelimbs of each mouse and subsequently the hindlimbs of the same mouse were placed on a 4.5 cm-high, 1.0 cm-wide bar and catalepsy was estimated. […] The catalepsy score and the standard of judgment are shown. below.
0: forelimbs less than 5 seconds
hindlimbs less than 5 seconds
2: forelimbs 10 seconds or more
hindlimbs 5 seconds or more
hindlimbs 10 seconds or more
5: forelimbs 10 seconds or more
The effect of the compounds was evaluated by the total of the catalepsy scores of five mice in each group (25 points at the full). The groups wherein the total score was not more than 20 point is were estimated to be effective. The number of the animals showing remission against catalepsy is the number of the mice for which the catalepsy score was not more than 4 points.
The ED50 values were calculated by Probit analysis.

rid-strain male mice = experiment: Acute toxicity test; format: in vivo; details: oral, seven days after administration
Experimental: Test compounds were orally administered to groups of rid-strain male mice weighing 20±1 g, each group consisting of three mice. Seven days after the administration, minimum lethal dose (MLD) of each compound was determined by observing the mortality.

[3] = test system: Parkinson's disease model in mice (MPTP); experiment: Effect on locomotor activity in Parkinson's disease model in mice (MPTP-treated mice); format: in vivo, male C57BL/6 mice; details: 30 minutes measurement
Experimental: 1-Methyl-4-phenyl-1,2,3,6-tetrahydropyridine (MPTP) causes symptoms of Parkinson's disease in humans Science, 219, 979 (1983)]. It is reported that an experimental Parkinson's disease model was obtained by administering MPTP to mice [Science, 224, 1451 (1984)]. If a compound is effective on the experimental Parkinson's disease model in mouse, the compound can be expected to have a therapeutic effect on Parkinson's disease.
The experiment was performed by using several groups of 7-weeks-old male C57BL/6 mice (weighing 20 to 24 g, Japan SLC), each group consisting of 8 mice. MPTP (RBI Co., Ltd. ) dissolved in a physiological saline solution (Otsuka Pharmaceutical Co., Ltd. ) was intraperitoneally administered to each mouse once a day for five consecutive days at a dose of 30 mg/kg. Test compounds were suspended in injectable distilled water (Otsuka Pharmaceutical Co., Ltd.) containing Tween 80 [polyoxyethylene (20) sorbitan monooleate]. […] The amount of active movements of each mouse was measured by using Automex-II (Columbus Instruments International Corp.) for the period of 30 minutes starting 30 minutes after the administration of the test compound. The effect of the compounds was evaluated by comparing the average counts of the active movements of the test compound-administered groups with those of the control groups. […]

[4] = test system: Haloperidol-induced catalepsy in mice; experiment: Effect on haloperidol-induced catalepsy; format: in vivo, male ddY mice; details: Mus musculus; ten mice at each dose; effective = catalepsy score 3 or less; Probit analysis; read-out: ED50 (50% effective dose)

| SMILES | total rotation counts (average count ± S.E.M.), apomorphine ([1]; apomorphine 0.1 mg/kg, s.c. without test compound) [count] | Number of the Animals Showing Remission [2] | Remission Rate [2] [%] | Total Score (catalepsy) [2] | minimum lethal dose (MLD) (rid-strain male mice) | Amount of Active Movements (average count ± S.E.M) ([3]; L-DOPA 300 mg/kg, MPTP group 207 ± 85.5, normal control 1875 ± 77.7, no significant difference vs MPTP-treated group) [count] | Amount of Active Movements (average count ± S.E.M) ([3]; 10 mg/kg, oral, MPTP group 41 ± 14.3, normal control 1984 ± 122.3) [count] | ED50 [4] [mg/kg] | total rotation counts (average count ± S.E.M.), test compound + apomorphine ([1]; 10 mg/kg oral 30 minutes before apomorphine 0.1 mg/kg, s.c., p<0.05) [count] |
| --- | --- | --- | --- | --- | --- | --- | --- | --- | --- |
| CN1CCc2cccc3c2[C@H]1Cc1ccc(O)c(O)c1-3 [apomorphine, reference compound] | 706 ± 59 | – | – | – | – | – | – | – | – |
| Nc1nc(Oc2ccccc2)nc2cc(-c3ccco3)nn12 [Compound 2, 7-Amino-2-(2-furyl) -5-phenoxypyrazolo [2,3-a]-1,3,5-triazine] | – | 4 | 32 | 17 | greater than 300 mg/kg | – | – | – | – |
| Nc1nc2ccc(Cl)cc2c2nc(-c3ccco3)nn12 [Compound 3, 5-Amino-9-chloro-2-(2-furyl) -1,2,4-triazolo-[1,5-c]quinazoline] | – | 4 | 48 | 13 | – | – | – | – | – |
| N[C@@H](Cc1ccc(O)c(O)c1)C(=O)O [L-DOPA, reference compound] | – | – | – | – | – | 561 ± 271.01 | – | – | – |
| Nc1nc(Oc2ccccc2)nc2nc(-c3ccco3)nn12 [Compound 1, 7-Amino-2(2-furyl) -5-phenoxy [1,2,4]triazolo[1,5-a]-1,3,5-triazine] | – | 5 | 80 | 5 | greater than 300 mg/kg | – | 785 ± 87.3 | 1.3 | 1011 ± 139 |
| Nc1nc2nn(Cc3ccc(F)cc3)cc2c2nc(-c3ccco3)nn12 [Compound 4, 5-Amino-8-(4-fluorobenzyl) -2-(2-furyl)pyrazolo-[4,3-e]-1,2,4-triazolo [1,5-c]pyrimidine] | – | 3 | 52 | 12 | – | – | – | – | – |

Reference: patent publication US5565460A, “Therapeutic purine agents for parkinson's disease” (Kyowa Hakko Koygo Co., Ltd., priority 1993, dated 1996)
